Experimental data taken from US8318759B2, “Pyrrolidine derivatives as NK3 receptor antagonists” (Hoffmann-La Roche Inc., priority 2009, dated 2012).

molecular target: T1, human NK3 receptor (Homo sapiens, UniProt P29371); assay: [3H]SR142801 competition binding assay; conditions: membrane from HEK293 cells transiently expressing recombinant human NK3 receptor; radioligand [3H]SR142801; Ki from IC50 by Cheng-Prussoff equation
T1 construct: expressed in transfected cells; host or cells: HEK293 cells (transient expression), membranes
T1 sequence (P29371 1-465): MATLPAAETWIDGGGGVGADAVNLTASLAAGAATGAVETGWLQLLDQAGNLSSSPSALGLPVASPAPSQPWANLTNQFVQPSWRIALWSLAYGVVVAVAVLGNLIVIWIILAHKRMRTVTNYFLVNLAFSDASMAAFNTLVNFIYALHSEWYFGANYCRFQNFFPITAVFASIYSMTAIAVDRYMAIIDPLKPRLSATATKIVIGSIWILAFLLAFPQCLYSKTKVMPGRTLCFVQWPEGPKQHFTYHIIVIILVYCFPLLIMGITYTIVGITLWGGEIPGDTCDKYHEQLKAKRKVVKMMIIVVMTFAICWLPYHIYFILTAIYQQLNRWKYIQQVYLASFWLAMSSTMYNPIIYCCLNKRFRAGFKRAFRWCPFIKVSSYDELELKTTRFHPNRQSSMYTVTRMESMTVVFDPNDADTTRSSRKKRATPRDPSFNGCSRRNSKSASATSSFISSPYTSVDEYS
Procedure: [^3H]SR142801 Competition Binding Assay
hNK3 receptor binding experiment were performed using [^3H]SR142801 (Catalog No. TRK1035, specific activity: 74.0 Ci/mmol, Amersham, GE Healthcare UK limited, Buckinghamshire, UK) and membrane isolated from HEK293 cells transiently expressing recombinant human NK3 receptor. After thawing, the membrane homogenates were centrifuged at 48,000×g for 10 min at 4° C., the pellets were resuspended in the 50 mM Tris-HCl, 4 mM MnCl2, 1 μM phosphoramidon, 0.1% BSA binding buffer at pH 7.4 to a final assay concentration of 5 μg protein/well. […] At the end of the incubation, membranes were filtered onto unitfilter (96-well white microplate with bonded GF/C filter preincubated 1 h in 0.3% PEI+0.3% BSA, Packard BioScience, Meriden, Conn.) with a Filtermate 196 harvester (Packard BioScience) and washed 4 times with ice-cold 50 mM Tris-HCl, pH 7.4 buffer. Nonspecific binding was measured in the presence of 10 μM SB222200 for both radioligands. The radioactivity on the filter was counted (5 min) on a Packard Top-count microplate scintillation counter with quenching correction after addition of 45 μl of microscint 40 (Canberra Packard S. A., Zürich, Switzerland) and shaking for 1 h. Inhibition curves were fitted according to the Hill equation: y=100/(1+(x/IC50)^nH), where nH=slope factor using Excel-fit 4 software (Microsoft). IC50 values were derived from the inhibition curve and the affinity constant (Ki) values were calculated using the Cheng-Prussoff equation Ki=IC50/(1+[L]/KD) where [L] is the concentration of radioligand and KD is its dissociation constant at the receptor, derived from the saturation isotherm. All experiments were performed in duplicate and the mean±standard error (SEM) of the individual Ki values was calculated.

Ki [nM] | Structure (SMILES)
42.9 | CN(C[C@H]1CN(C(=O)C2CCN(C(=O)C3(C)CC3)CC2)C[C@@H]1c1ccc(Cl)cc1)c1ncc(C(F)(F)F)cn1 [Example 55, ((3S,4S)-3-(4-Chloro-phenyl)-4-{[methyl-(5-trifluoromethyl-pyrimidin-2-yl)-amino]-methyl}-pyrrolidin-1-yl)-[1-(1-methyl-cyclopropanecarbonyl)-piperidin-4-yl]-methanone]
1.8 | CC1(C(=O)N2CCC(C(=O)N3C[C@H](CNc4ncc(C(F)(F)F)cn4)[C@@H](c4ccc(Cl)c(Cl)c4)C3)CC2)CC1 [Example 57, {(3S,4S)-3-(3,4-Dichloro-phenyl)-4-[(5-trifluoromethyl-pyrimidin-2-ylamino)-methyl]-pyrrolidin-1-yl}-[1-(1-methyl-cyclopropanecarbonyl)-piperidin-4-yl]-methanone]
1.2 | Cc1cc(C(=O)N2C[C@H](CNc3ncc(C(F)(F)F)cn3)[C@@H](c3ccc(Cl)c(Cl)c3)C2)cnn1 [Example 58, {(3S,4S)-3-(3,4-Dichloro-phenyl)-4-[(5-trifluoromethyl-pyrimidin-2-ylamino)-methyl]-pyrrolidin-1-yl}-(6-methyl-pyridazin-4-yl)-methanone]
2.3 | CN(C[C@H]1CN(C(=O)C2CCN(C(=O)C3(C)CC3)CC2)C[C@@H]1c1ccc(Cl)c(Cl)c1)c1ncc(C(F)(F)F)cn1 [Example 59, ((3S,4S)-3-(3,4-Dichloro-phenyl)-4-{[methyl-(5-trifluoromethyl-pyrimidin-2-yl)-amino]-methyl}-pyrrolidin-1-yl)-[1-(1-methyl-cyclopropanecarbonyl)-piperidin-4-yl]-methanone]
15.8 | Cc1cc(C(=O)N2C[C@H](CN(C)c3ncc(C(F)(F)F)cn3)[C@@H](c3ccc(Cl)c(Cl)c3)C2)cnn1 [Example 60, ((3S,4S)-3-(3,4-Dichloro-phenyl)-4-{[methyl-(5-trifluoromethyl-pyrimidin-2-yl)-amino]-methyl}-pyrrolidin-1-yl)-(6-methyl-pyridazin-4-yl)-methanone]
8.4 | CN(C[C@H]1CN(C(=O)C2CCN(C(=O)C3(C)CC3)CC2)C[C@@H]1c1ccc(Cl)c(Cl)c1)c1ccc(C(F)(F)F)cn1 [Example 62, [4-((3S,4S)-3-(3,4-Dichloro-phenyl)-4-{[methyl-(5-trifluoromethyl-pyridin-2-yl)-amino]-methyl}-pyrrolidine-1-carbonyl)-piperidin-1-yl]-(1-methyl-cyclopropyl)-methanone]
31.8 | CN(C[C@H]1CN(C(=O)C2CCN(C(=O)C3(C)CC3)CC2)C[C@@H]1c1ccc(Cl)c(Cl)c1)c1ccc(C#N)cn1 [Example 64, 6-({(3S,4S)-4-(3,4-Dichloro-phenyl)-1-[1-(1-methyl-cyclopropanecarbonyl)-piperidine-4-carbonyl]-pyrrolidin-3-ylmethyl}-methyl-amino)-nicotinonitrile]
47 | CN(C[C@H]1CN(C(=O)C2CCN(C(=O)C3(C)CC3)CC2)C[C@@H]1c1ccc(Cl)c(Cl)c1)c1ccc(Cl)cn1 [Example 66, {4-[(3S,4S)-3-{[(5-Chloro-pyridin-2-yl)-methyl-amino]-methyl}-4-(3,4-dichloro-phenyl)-pyrrolidine-1-carbonyl]-piperidin-1-yl}-(1-methyl-cyclopropyl)-methanone]

Continued, molecule first:

Structure (SMILES) | Ki [nM]
CC1(C(=O)N2CCC(C(=O)N3CC(CNc4ccc(Cl)cn4)C(c4ccc(Cl)cc4)C3)CC2)CC1 (racemic) [Example 41, (3SR,4RS) {3-(4-Chloro-phenyl)-4-[(5-chloro-pyridin-2-ylamino)-methyl]-pyrrolidin-1-yl}-[1-(1-methyl-cyclopropanecarbonyl)-piperidin-4-yl]-methanone] | 86.3
CC1(C(=O)N2CCC(C(=O)N3C[C@H](CNc4ncc(C(F)(F)F)cn4)[C@@H](c4ccc(F)cc4)C3)CC2)CC1 (racemic) [Example 46] | 22.8
CN(C[C@H]1CN(C(=O)C2CCN(C(=O)C3(C)CC3)CC2)C[C@@H]1c1ccc(F)cc1)c1ncc(C(F)(F)F)cn1 (racemic) [Example 47] | 71.6
CS(=O)(=O)N1CCN(C(=O)N2C[C@H](CNc3ccc(C#N)cn3)[C@@H](c3ccc(Cl)c(Cl)c3)C2)CC1 [Example 8] | 71.1
CS(=O)(=O)N1CCN(C(=O)N2C[C@H](CNc3ccc(C(F)(F)F)cn3)[C@@H](c3ccc(Cl)c(Cl)c3)C2)CC1 [Example 13, (3S,4S)-{3-(3,4-Dichloro-phenyl)-4-[(5-trifluoromethyl-pyridin-2-ylamino)-methyl]-pyrrolidin-1-yl}-(4-methanesulfonyl-piperazin-1-yl)-methanone] | 6.6
CS(=O)(=O)N1CCN(C(=O)N2C[C@@H](CNc3ccc(C(F)(F)F)cn3)[C@H](c3ccc(Cl)c(Cl)c3)C2)CC1 [Example 14, (3R,4R)-{3-(3,4-Dichloro-phenyl)-4-[(5-trifluoromethyl-pyridin-2-ylamino)-methyl]-pyrrolidin-1-yl}-(4-methanesulfonyl-piperazin-1-yl)-methanone] | 92.4
CN(C[C@H]1CN(C(=O)C2CCN(C(=O)C3(C)CC3)CC2)C[C@@H]1c1ccc(Cl)cc1)c1ccc(C#N)cn1 [Example 51, 6-({(3S,4S)-4-(4-Chloro-phenyl)-1-[1-(1-methyl-cyclopropanecarbonyl)-piperidine-4-carbonyl]-pyrrolidin-3-ylmethyl}-methyl-amino)-nicotinonitrile] | 69.9
CN(C[C@H]1CN(C(=O)C2CCN(C(=O)C3(C)CC3)CC2)C[C@@H]1c1ccc(Cl)cc1)c1ccc(C(F)(F)F)cn1 [Example 53, [4-((3S,4S)-3-(4-Chloro-phenyl)-4-{[methyl-(5-trifluoromethyl-pyridin-2-yl)-amino]-methyl}-pyrrolidine-1-carbonyl)-piperidin-1-yl]-(1-methyl-cyclopropyl)-methanone] | 85.6

system: not given; assay: not given; conditions: phase II trial; altered behavior, delusion, hallucinations, extreme emotions, excited motor activity, incoherent speech; cited from earlier work

Structure (SMILES) | activity on positive symptoms of schizophrenia
CC(=O)N(C)C1(c2ccccc2)CCN(CCC[C@]2(c3ccc(Cl)c(Cl)c3)CCCN(C(=O)c3ccccc3)C2)CC1 [SR 142,801, Osanetant] | active

same assay, conditions: phase II trial; depression, anhedonia, social isolation, memory and attention deficits; cited from earlier work

Structure (SMILES) | activity in the treatment of negative symptoms of schizophrenia
CC(=O)N(C)C1(c2ccccc2)CCN(CCC[C@]2(c3ccc(Cl)c(Cl)c3)CCCN(C(=O)c3ccccc3)C2)CC1 [SR 142,801, Osanetant] | inactive
